Measured values: patent US20250195469A1, “COMPANION DIAGNOSTICS AND STRATEGIES FOR TREATMENT WITH AN ARYL HYDROCARBON RECEPTOR AGONIST COMPOUND” (AZORA THERAPEUTICS, INC., priority 2022, published 2025)
Like-named read-outs stand apart in the source and are kept apart here.

Legend:
AhR = target: T1, AhR (Homo sapiens, UniProt P35869); assay: Inhaled AhR antagonist combined with indirubin therapy; format: in vivo; details: two weeks, with nanoparticulate indirubin
T1 construct: takes a biopsy of the treated skin from this treated spot; from tissue; host or cells: human skin biopsy, epidermal cells
T1 sequence (P35869 11-848): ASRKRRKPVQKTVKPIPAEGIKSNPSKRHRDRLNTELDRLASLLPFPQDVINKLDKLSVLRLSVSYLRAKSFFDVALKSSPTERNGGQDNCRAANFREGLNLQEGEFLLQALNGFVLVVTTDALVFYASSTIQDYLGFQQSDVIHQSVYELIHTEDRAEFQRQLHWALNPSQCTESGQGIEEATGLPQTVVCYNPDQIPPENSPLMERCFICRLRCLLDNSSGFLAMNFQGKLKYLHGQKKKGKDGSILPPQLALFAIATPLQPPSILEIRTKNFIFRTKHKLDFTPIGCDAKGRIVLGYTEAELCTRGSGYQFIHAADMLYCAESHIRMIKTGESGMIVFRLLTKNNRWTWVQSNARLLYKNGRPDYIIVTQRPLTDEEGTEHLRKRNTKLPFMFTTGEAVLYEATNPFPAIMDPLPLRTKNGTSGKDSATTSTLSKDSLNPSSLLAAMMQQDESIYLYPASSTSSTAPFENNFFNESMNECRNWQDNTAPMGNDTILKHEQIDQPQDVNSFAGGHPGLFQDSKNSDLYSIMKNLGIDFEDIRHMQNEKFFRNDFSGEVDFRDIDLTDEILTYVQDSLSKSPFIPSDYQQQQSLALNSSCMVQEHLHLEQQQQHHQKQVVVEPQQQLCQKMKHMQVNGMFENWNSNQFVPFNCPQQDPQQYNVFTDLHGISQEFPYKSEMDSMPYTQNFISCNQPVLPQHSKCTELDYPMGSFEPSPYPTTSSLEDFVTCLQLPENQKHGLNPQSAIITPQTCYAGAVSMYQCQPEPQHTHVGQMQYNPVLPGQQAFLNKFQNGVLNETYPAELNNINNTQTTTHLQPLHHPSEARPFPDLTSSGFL
Source text: During the course of therapy with a nanoparticulate form of synthetic indirubin for the treatment of gastritis, a patient complains of ad adverse event, in this case shortness of breath and difficulty doing physical exercise. The patient is responding well to therapy but the doctor is concerned about possible development of additional PAH-like symptoms. The doctor maintains the indirubin therapy but prescribes the patient an inhalable AhR antagonist, in this case inhaled 1-Methyl-N-[2-methyl-4-[2-(2-methylphenyl)diazenyl]phenyl-1H-pyrazole-5-carboxamide (CH223191) that is designed to reduce AhR signaling in the lung epithelium.

PBMCs = assay: EROD activity of PBMCs stimulated with AhR agonist; format: cell-based, human; details: patient PBMCs, 24 hours, compared to healthy normal PBMCs
Description: Prior to starting therapy with a topical AhR agonist for the treatment of pustular psoriasis, a blood sample is collected. PBMCs are processed and sent out fresh for stimulation with and without the AhR agonist FICZ. After 24 hours, EROD activity is measured. […] The ratio of stimulated to unstimulated EROD activity may be indicative of baseline AhR activity and responsiveness to AhR therapy. […] Based on the data, the patient's dermatologist prescribes the topical AhR agonist for the treatment of pustular psoriasis.

mice = details: chronic dosing, only starting after 15 days of exposure; cited from earlier work
hamsters = details: cited from earlier work
guinea pigs = details: cited from earlier work
ALT and AST = assay: Liver enzymes after indigo modified release tablet, with or without lead in dose; format: in vivo, human
Description: As such, a product label identified a clinical regiment whereby a lead in dose of 5 mg indigo is administered once daily for 2 consecutive days prior to beginning the 50 mg therapeutic dose.

[1] = Description: A patient with pouchitis is being treated with an oral suspension containing 10 mg indirubin twice daily. Plasma samples are taken weekly during the first 6 weeks of therapy and sent out for PK analysis for indirubin levels. […] The physician reduces the dose to 2.5 mg once per day.
CYP1A1 = tested on: CYP1A1
Description: (§1) A patient with Crohn's disease is given 50 mg of indirubin in an immediate release tablet once daily. A diagnostic is set to evaluate the mRNA levels of both CYP1A1 and CYP1A2 in the blood using RT-PCR of peripheral blood mononuclear cell mRNA every two weeks.

CYP1A2 = tested on: CYP1A2
Description: as §1

[2] = tested on: relapsing-remitting multiple sclerosis patients; details: low dose (0.6 mg/day); cited from earlier work
[3] = Echocardiogram monitoring during linomide therapy (REMS); format: in vivo, human; details: oral tablet, after 6 months
Source text: Based on the label of an orally administered tablet containing linomide, a patient must enroll in a risk evaluation and mitigation strategy (REMS). In the case of this drug, patients must comply with ongoing echocardiogram monitoring requirements. […] The prescribing physician evaluates the echocardiogram an decides the patient should be discontinued. The physician passes this information along to the REMS program by logging the data into a secure server. Subsequently the server alerts the patient and the prescribing pharmacy that the patient is no longer eligible to refill their linomide tablet prescription.

[4] = tested on: multiple sclerosis patients; details: Phase 3; cited from earlier work
[5] = AhR agonist metabolism in blood microsomes, AhR-luciferase reporter readout; format: in vitro ADME, human; details: 10 nM, 24 hours
Description: Prior to beginning therapy with oral meisoindigo for the treatment of rheumatoid arthritis, a physician orders a diagnostic to assess ability of the subject to adequately metabolize meisoindigo. Blood microsomes are extracted from the subject and incubated in medium containing 10 nM meisoindigo for 24 hours. The microsomes are removed via ultra-centrifugation and the remaining medium is added to a reporter cell line (such as product IB06001 sold by Indigo Biosciences) that expresses luciferase behind the promoter for human CYP1A1 and which can detect AhR agonist activity. […] Based on the results of this diagnostic, the physician believes the patient has a defect making them a poor metabolizer of meisoindigo and recommends against the use of meisoindigo due to the possibility of development of adverse events.

[6] = Headaches with delayed release indirubin, omeprazole lead in dose; details: 20 mg delayed-release capsule before delayed release indirubin, first week
[7] = tested on: plaque psoriasis patients; details: phase 3, plaque psoriasis patients; cited from earlier work
[8] = 50 mg immediate release tablet once daily, after two weeks
[9] = two weeks after reduction to 10 mg every other day

Cc1ccccc1N=Nc1ccc(NC(=O)c2ccnn2C)c(C)c1 [CH223191]
shortness of breath after combination therapy (AhR): no longer has shortness of breath

O=Cc1c2c(cc3c1=Nc1ccccc1-3)=Nc1ccccc1-2 [FICZ, 6-formylindolo[3,2−b]carbazole]
EROD activity after stimulation (PBMCs): high EROD activity

Clc1cc2c(cc1Cl)Oc1cc(Cl)c(Cl)cc1O2 [TCDD, 2,3,7,8-tetrachlorodibenzo-p-dioxin]
mean arterial blood pressure (mice): increased
LD50 (hamsters): over 5000 μg/kg
LD50 (guinea pigs): 1 µg/kg

O=C1/C(=C2\Nc3ccccc3C2=O)Nc2ccccc21 [indigo]
patients with the ALT and AST increase (ALT and AST; 50 mg twice daily modified release tablet, 2 days): 50%
increase in ALT and AST (ALT and AST; 50 mg twice daily modified release tablet, 2 days following administration): 5 ×
changes in ALT or AST levels (ALT and AST; lead in dose 5 mg once daily for 2 days before 50 mg therapeutic dose, 2 days following therapeutic dosing): did not produce any notable changes

O=C1Nc2ccccc2/C1=C1/Nc2ccccc2C1=O [indirubin]
plasma indirubin level ([1]; week 1, oral suspension 10 mg twice daily): 5 ng/mL
plasma indirubin level ([1]; week 2, oral suspension 10 mg twice daily): 25 ng/mL
plasma indirubin level ([1]; week 3, 2.5 mg once per day): 2 ng/mL
plasma indirubin level ([1]; week 4, 2.5 mg once per day): 3 ng/mL
plasma indirubin level ([1]; week 5, 2.5 mg once per day): 2 ng/mL
plasma indirubin level ([1]; week 6, 2.5 mg once per day): 3 ng/mL
increase of CYP1A1 mRNA in PBMCs (CYP1A1; [8]): 12 ×
increase of CYP1A1 mRNA in PBMCs compared to baseline (CYP1A1; [9]): 15 ×
increase of CYP1A2 mRNA in PBMCs (CYP1A2; [8]): 3 ×
increase of CYP1A2 mRNA in PBMCs compared to baseline (CYP1A2; [9]): 6 ×

CCN(C(=O)c1c(O)c2c(Cl)cccc2n(C)c1=O)c1ccccc1 [laquinimod]
trial's primary endpoint [2]: failed to meet the trial's primary endpoint

CN(C(=O)c1c(O)c2ccccc2n(C)c1=O)c1ccccc1 [linomide, linomide (roquinimex)]
echocardiogram findings [3]: signs of valvar heart disease
toxicity leading to termination of development [4]: cardiovascular toxicity, specifically pleuritis, pericarditis, and chest pain

CN1C(=O)/C(=C2/C(=O)Nc3ccccc32)c2ccccc21 [meisoindigo]
fraction of added compound metabolized ([5]; microsomes from a healthy normal individual): 99%
metabolism in presence of microsomes ([5]; patient blood microsomes): little to no meisoindigo was metabolized

COc1ccc2[nH]c([S+]([O-])Cc3ncc(C)c(OC)c3C)nc2c1 (stereo not shown) [omeprazole]
effect of lead in dose on headaches [6]: reduce the development of headaches

CC(C)c1c(O)cc(/C=C/c2ccccc2)cc1O [tapinarof]
patients who developed inflammation of the hair follicle (folliculitis) [7]: Over 20%
